Measured values published in ChEMBL document CHEMBL1909496, “Malabaricone C from Myristica cinnamomea exhibits anti-quorum sensing activity” (J Nat Prod, 2011).
Active and inactive are the calls of the source. No cut-off for these calls is given here.

Legend:
[1] = system: Pseudomonas aeruginosa PAO1; experiment: Inhibition of Pseudomonas aeruginosa PAO1 quorum sensing assessed as reduction of biofilm formation at 2 mg/ml after 18 hrs using crystal violet staining
[2] = system: Pseudomonas aeruginosa PAO1; experiment: Inhibition of Pseudomonas aeruginosa PAO1 quorum sensing assessed as reduction of biofilm formation at 3 mg/ml after 18 hrs using crystal violet staining
[3] = system: Pseudomonas aeruginosa PAO1; experiment: Inhibition of Pseudomonas aeruginosa PAO1 quorum sensing assessed as reduction of biofilm formation at 1 mg/ml after 18 hrs using crystal violet staining
Pseudomonas aeruginosa = experiment: Toxicity in Pseudomonas aeruginosa PAO1 quorum sensing assessed as cell viability; format: organism-based
[4] = system: Pseudomonas aeruginosa PAO1; experiment: Inhibition of Pseudomonas aeruginosa PAO1 quorum sensing assessed as inhibition of pycocyanin production at >/= 0.1 mg/ml after overnight incubation
[5] = system: Pseudomonas aeruginosa PAO1; experiment: Inhibition of LuxR-dependent quorum sensing in Pseudomonas aeruginosa PAO1 assessed as inhibition of autoinducer production
[6] = system: Chromobacterium violaceum; experiment: Inhibition of Chromobacterium violaceum CV026 quorum sensing assessed as N-3-oxohexanoyl-homoserine lactone-induced violacein production at 3 mg/ml relative to control

| inhibition [1] | inhibition [2] | inhibition [3] | inhibition [4] | inhibition [5] | inhibition [6] | SMILES | Activity (Pseudomonas aeruginosa) |
| --- | --- | --- | --- | --- | --- | --- | --- |
| Active | Active | Active |  |  |  | Oc1cc(O)c2c(c1)O[C@H](c1ccc(O)c(O)c1)[C@@H](O)C2 |  |
| 63% | 69.4% | 44.9% | Active | inactive | Active | O=C(CCCCCCCCc1ccc(O)c(O)c1)c1c(O)cccc1O [MALABARICONE C] | Non-toxic |
